The source made the active and inactive calls. Rule as the data show it, for most assays here: actives have a measured EC50 and inactives only a lower limit.
Tests used:
[1] = NIH-3T3 fibroblast cytotoxicity, dose response, cytotoxicity control, cell-based, fluorescence, Alamar Blue, secondary assay (AID 2327); type: functional;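 also: NIH-3T3 mouse fibroblasts cultured with fluconazole at 8 µg/mL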
[2] = tested on: Streptococcus sp. 'group A'; test: growth inhibition of control SK(-) GAS strain, dose response, counter-screen for streptokinase expression inhibitor project, luminescence, kanamycin, BacTiterGlo, confirmation (AID 1900); type: functional, organism-based
cells [3] = type: functional, cell-based
[4] = C. albicans growth with fluconazole, confirmation, fluorescence, retest (AID 2467); type: functional, cell-based
[5] = inhibitors of intracellular T. cruzi replication, confirmation, NIH3T3 host cells, beta-gal luminescence (AID 2044); type: functional, cell-based;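 also: intracellular parasites grown in NIH/3T3 mouse fibroblasts as host cells; luminescent beta-galactosidase reporter signal from transgenic T. cruzi replicating inside host cells; inhibitors lower the luminescence signal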
cells [6] = type: functional, cell-based; remark: listed apart in the source
[7] = molecular target: T1, Serine/threonine-protein phosphatase (Candida dubliniensis (strain CD36 / CBS 7987 / NCPF 3949 / NRRLY-17841) (Yeast), UniProt B9W6M3); test: calcineurin pathway inhibitors in yeast reporter, dose response, S. cerevisiae, CDRE-lacZ, luminescence, secondary (AID 2388); type: functional, cell-based;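 also: yeast reporter cells carrying a calcineurin-responsive lacZ construct stimulated with calcium chloride; luminescent beta-galactosidase reporter signal in whole cells rather than isolated phosphatase activity; potency for inhibition where a drop in reporter signal means calcineurin blockade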
T1 sequence (B9W6M3 whole entry): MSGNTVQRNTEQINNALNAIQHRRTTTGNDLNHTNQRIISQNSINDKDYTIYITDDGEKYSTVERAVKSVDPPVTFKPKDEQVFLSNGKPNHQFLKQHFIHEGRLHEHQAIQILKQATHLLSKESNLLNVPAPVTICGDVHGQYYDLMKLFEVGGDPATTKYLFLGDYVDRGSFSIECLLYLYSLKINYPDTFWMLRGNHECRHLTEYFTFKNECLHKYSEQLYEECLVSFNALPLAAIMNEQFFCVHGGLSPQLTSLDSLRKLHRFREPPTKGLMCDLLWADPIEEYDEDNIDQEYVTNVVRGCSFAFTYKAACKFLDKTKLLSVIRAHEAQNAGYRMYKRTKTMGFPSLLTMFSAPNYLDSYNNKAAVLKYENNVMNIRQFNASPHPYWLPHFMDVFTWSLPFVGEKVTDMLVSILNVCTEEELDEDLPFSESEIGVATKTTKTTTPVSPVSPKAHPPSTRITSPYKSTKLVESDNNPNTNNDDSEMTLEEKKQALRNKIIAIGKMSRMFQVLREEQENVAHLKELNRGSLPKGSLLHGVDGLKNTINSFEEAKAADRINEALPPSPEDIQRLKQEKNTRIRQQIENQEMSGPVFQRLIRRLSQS

[8] = cytotoxicity toward NIH3T3 fibroblasts, dose response, counter-screen, cell-based, ATP luminescence, mouse fibroblasts (AID 2010); type: functional;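 also: cells exposed to compound for about 90 hours before reading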
Streptococcus = test: Group A Streptococcus viability loss, dose response, counter-screen for streptokinase expression inhibitor project, luminescence, BacTiterGlo (AID 1915); type: functional, organism-based;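 also: potency for reduction of bacterial viability or growth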
Hexokinase HKDC1 = molecular target: T2, Hexokinase HKDC1 (Homo sapiens, UniProt Q2TB90); test: HKDC1 hexokinase activators, dose response, biochemical, W721R variant (AID 504730); type: functional
T2 sequence (Q2TB90 whole entry): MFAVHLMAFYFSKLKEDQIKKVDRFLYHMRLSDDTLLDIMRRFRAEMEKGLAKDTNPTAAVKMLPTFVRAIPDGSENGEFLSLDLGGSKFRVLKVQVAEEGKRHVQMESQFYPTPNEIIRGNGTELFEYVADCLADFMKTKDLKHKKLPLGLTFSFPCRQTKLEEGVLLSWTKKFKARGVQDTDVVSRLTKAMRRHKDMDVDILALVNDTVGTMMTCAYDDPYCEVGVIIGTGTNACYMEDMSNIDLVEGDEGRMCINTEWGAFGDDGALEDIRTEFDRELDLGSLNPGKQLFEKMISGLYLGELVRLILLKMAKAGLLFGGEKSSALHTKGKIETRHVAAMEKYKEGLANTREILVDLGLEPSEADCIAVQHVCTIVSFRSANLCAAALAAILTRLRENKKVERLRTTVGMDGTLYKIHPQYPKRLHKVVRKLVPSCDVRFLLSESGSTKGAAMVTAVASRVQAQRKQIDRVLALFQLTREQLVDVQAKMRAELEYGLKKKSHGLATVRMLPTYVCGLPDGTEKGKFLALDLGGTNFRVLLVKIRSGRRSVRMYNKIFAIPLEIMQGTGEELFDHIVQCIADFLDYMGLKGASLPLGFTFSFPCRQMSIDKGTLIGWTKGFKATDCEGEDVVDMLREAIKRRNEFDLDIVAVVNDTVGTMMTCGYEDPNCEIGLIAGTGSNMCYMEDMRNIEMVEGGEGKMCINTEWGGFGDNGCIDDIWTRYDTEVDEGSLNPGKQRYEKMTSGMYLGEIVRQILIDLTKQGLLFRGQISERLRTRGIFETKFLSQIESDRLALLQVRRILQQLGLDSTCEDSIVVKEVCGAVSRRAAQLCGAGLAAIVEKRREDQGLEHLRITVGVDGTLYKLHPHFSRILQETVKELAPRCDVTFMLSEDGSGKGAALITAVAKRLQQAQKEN

Nonstructural protein 1 = Nonstructural protein 1 (Influenza A virus, UniProt Q194T2); type: functional, Influenza A virus (A/California/07/2009(H1N1))
Nonstructural protein 1, sequence (Q194T2 whole entry): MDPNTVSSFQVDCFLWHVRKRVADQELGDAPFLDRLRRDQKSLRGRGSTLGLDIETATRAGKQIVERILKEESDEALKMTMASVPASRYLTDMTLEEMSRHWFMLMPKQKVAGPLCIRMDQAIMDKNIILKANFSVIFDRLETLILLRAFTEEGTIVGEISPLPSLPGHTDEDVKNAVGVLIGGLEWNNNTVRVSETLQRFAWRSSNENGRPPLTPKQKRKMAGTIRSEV

Hexokinase-1 = molecular target: T3, Hexokinase-1 (Homo sapiens, UniProt P19367); test: hexokinase 1 activators, dose response, selectivity assay for HKDC1 activator project, biochemical (AID 504762); type: functional
T3 sequence (P19367 whole entry): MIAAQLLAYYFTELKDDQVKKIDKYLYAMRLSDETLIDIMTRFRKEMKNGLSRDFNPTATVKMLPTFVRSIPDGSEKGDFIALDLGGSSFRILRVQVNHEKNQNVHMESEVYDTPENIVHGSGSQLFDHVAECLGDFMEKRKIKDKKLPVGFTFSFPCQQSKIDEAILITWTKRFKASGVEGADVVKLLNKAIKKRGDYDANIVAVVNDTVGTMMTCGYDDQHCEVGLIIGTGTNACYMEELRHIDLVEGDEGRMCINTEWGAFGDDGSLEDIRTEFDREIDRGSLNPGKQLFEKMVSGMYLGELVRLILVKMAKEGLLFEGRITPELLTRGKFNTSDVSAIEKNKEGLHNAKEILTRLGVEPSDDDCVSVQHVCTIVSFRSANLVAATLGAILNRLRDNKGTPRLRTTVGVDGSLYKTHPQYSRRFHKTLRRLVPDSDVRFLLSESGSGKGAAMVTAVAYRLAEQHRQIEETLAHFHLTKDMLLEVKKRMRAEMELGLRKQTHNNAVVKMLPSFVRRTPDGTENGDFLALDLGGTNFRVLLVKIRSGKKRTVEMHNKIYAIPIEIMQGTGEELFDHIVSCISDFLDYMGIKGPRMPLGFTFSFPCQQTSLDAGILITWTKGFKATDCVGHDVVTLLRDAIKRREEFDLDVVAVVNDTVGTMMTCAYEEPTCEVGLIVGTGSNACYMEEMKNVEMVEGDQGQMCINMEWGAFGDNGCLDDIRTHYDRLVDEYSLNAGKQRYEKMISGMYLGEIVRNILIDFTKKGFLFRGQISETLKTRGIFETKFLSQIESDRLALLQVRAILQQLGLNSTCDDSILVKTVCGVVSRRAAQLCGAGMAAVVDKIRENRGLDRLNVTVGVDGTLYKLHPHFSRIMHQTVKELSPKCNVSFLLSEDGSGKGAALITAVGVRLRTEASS

HEK293 = test: inhibitors of LMP1-driven NF-kB reporter, dose response, cell-based, HEK293, luciferase, cherry-pick (AID 588343); type: functional; conditions: Homo sapiens
INS1 = test: beta cell apoptosis inhibitors, cytokine rescue, dose response, luminescence, retest (AID 449756); type: functional, cell-based; conditions: Rattus norvegicus;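 also: cell death triggered by IL-1 beta plus TNF-alpha plus IFN-gamma mixture; protective hits raise ATP signal compared with cytokine alone wells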
[9] = molecular target: ATP-dependent molecular chaperone HSP82 (Candida albicans (strain WO-1) (Yeast), UniProt C4YTQ8); test: loss of DOC-induced GRE-beta-galactosidase reporter signal, dose response, Hsp90 inhibitor project, S. cerevisiae, luminescence (AID 2400); type: functional, cell-based;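 also: beta-galactosidase luminescence from glucocorticoid response element reporter as proxy for Hsp90 function; inhibitor potency where signal loss means Hsp90 inhibition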
ATP-dependent molecular chaperone HSP82, sequence (C4YTQ8 whole entry): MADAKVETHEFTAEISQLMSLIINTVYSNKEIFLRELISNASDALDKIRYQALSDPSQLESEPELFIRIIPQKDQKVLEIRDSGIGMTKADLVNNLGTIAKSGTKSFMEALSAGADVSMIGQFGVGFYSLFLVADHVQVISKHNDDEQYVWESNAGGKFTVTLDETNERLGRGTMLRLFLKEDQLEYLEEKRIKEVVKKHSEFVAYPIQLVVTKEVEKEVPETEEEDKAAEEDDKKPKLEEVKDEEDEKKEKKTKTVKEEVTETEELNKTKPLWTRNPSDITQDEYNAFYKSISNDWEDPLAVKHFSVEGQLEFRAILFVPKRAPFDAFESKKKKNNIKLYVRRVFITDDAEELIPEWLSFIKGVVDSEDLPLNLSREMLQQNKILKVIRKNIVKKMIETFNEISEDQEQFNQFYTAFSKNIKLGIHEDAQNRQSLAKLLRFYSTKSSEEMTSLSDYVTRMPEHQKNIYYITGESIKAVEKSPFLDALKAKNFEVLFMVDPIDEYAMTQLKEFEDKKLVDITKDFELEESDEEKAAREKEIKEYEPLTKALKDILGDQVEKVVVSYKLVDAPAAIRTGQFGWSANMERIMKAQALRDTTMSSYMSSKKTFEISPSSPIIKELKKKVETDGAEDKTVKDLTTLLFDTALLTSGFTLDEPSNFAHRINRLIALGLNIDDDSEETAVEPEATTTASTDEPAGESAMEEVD

[10] = Shn3 3'UTR reporter inhibitors, dose response, cell-based, Clone20 osteoblasts, firefly luciferase, cherry-picked (AID 624132); type: functional;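 also: firefly luciferase luminescence from reporter carrying the Shn3 3'UTR in osteoblasts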
[11] = NIH-3T3 fibroblast cytotoxicity, dose response, cytotoxicity control for antifungal single agent project, cell-based, Alamar Blue, dry powder (AID 602188); type: functional
[12] = HepG2 cell cytotoxicity, dose response, cytotoxicity control for Shn3 inhibitor project, CellTiter-Glo, cherry-picked (AID 624134); type: functional, cell-based
[13] = control 3'UTR Renilla luciferase suppression, dose response, counter-screen for Shn3 inhibitor project, cell-based, Clone20-Shn3RL, cherry-picked (AID 624133); type: functional

## O=C(NNC(=S)Nc1ccc(Cl)c(Cl)c1)c1ccccn1
[1]
  EC50: 42 µM (inconclusive)
[2]
  EC50: 2.3 µM (active)
Cells [3]
  EC50: 10.5 µM (active)
[4]
  EC50: 0.853 µM (active)
[5]
  EC50: 1.53 µM (active)
Cells [6]
  EC50: > 350 µM (not active)
[7]
  EC50: > 180 µM (inactive)
[8]
  EC50: 5.02 µM (active)
Streptococcus
  EC50: 3.32 µM (active)
Hexokinase HKDC1
  EC50: 2.2 µM (active)
Nonstructural protein 1
  IC50: 5.57 µM (active)
Hexokinase-1
  EC50: > 80 µM (inactive)
HEK293
  AC50: 6.08 µM (active)
INS1
  AC50: 1.06 µM (active)
[9]
  EC50: > 150 µM (inactive)
[10]
  AC50: 2.33 µM (active)
[11]
  AC50: 2.98 µM (active)
[12]
  AC50: 3.72 µM (active)
[13]
  AC50: 2.44 µM (active)

Source: ChEMBL document CHEMBL1201862, “PubChem BioAssay data set” (2004)
